Measurements published in US12441733B2, “Substituted 2,4-dioxotetrahydropyrimidines as intermediates in the synthesis of bruton's tyrosine kinase inhibitors” (Novartis AG, priority 2018, dated 2025).
Like-named read-outs stand apart in the source and are kept apart here.

Experiments:
Format in all cases: cell-based
TMD8 cells = assay: Resazurin cell viability (proliferation) assay in TMD8 DLBCL cells; conditions: TMD8 cells (BTK dependent), 72 h, 50% growth inhibition vs vehicle, read-out: TMD8 Prol GI50
Procedure: (§1) Compounds of the invention were tested in the following cellular assays. The terms in Table 2 are defined as follows: DC50 refers to the concentration at which 50% maximal degradation was observed; deg Amax is the extent of degradation and the value refers to the % protein remaining at the concentration at which maximum degradation is seen; ProI GI50 refers to the proliferation data and defines the concentration at which 50% growth inhibition was observed compared to the vehicle treated control at the end of the incubation time. TMD8 cells are BTK dependent and OCI-LY3 cells are BTK independent.
(§2) Cell Viability Assay in DLBCL (Diffuse Large B-Cell Lymphoma) Cells:
(§3) The effect of the BTK compounds on cell proliferation was measured by a Resazurin (Sigma, #R7017) based cell viability assay. TMD8 (BTK compound sensitive) and OCI-LY3 (BTK compound insensitive) cells were incubated for 72 h at 37° C. and 5% CO2 with the corresponding compound, Resazurin is a non-toxic, cell-permeable substrate that is virtually non-fluorescent. Upon entering living cells, Resazurin (Sigma, #R7017) is reduced to highly fluorescent Resorufin. The metabolic activity was assessed by measuring the fluorescence signal (ex. 530 nm; em. 600 nm).
(§4) TMD8 and OCI-Ly3 cells were seeded at day 0 in triplicates at a cell density of 1×10^4 cells per 150 μl/well in a 96-well plate (Costar #3904). Additional plates were prepared, in order to assess the basal metabolic activity of both cell lines at the beginning of the experiment. For these reference plates, Resazurin (Sigma, #R7017) was added to a final concentration of 13 μg/ml 3 h post seeding and was incubated for 2 h at 37° C. and 5% CO2. Following incubation, the fluorescent signal intensity of the 96-well plates was measured on a Mithras LB940 multimode plate reader at 530/600 nm (Berthold Technologies, Germanyl).
(§5) In parallel, 3 h post-seeding, test-plates were treated with compound at various concentrations, or with vehicle (DMSO) alone for 3 days. The compound addition to the plates was performed by using a HP D300 digital dispenser (TECAN, Switzerland). The compounds were tested in triplicate, 8-point serial dilution (1:4), with a start concentration of 10 μM for OCI-LY3 and 1 μM for the TMD8 cells, respectively. To assess the relative proliferation of the cells, Resazurin was added to each well directly to the medium to a final concentration of 13 μg/ml. The plates were incubated for 2 h at 37° C. and 5% CO2 to result in a 72 h endpoint. Following incubation, the fluorescent signal intensity of the 96-well plates were measured on a Mithras LB940 multimode plate reader at 530/600 nm (Berthold Technologies, Germanyl). The formation of Resorufin dye directly correlates with the number of metabolically active cells. For each triplicate treatment the mean and standard deviation were calculated and analyzed via curve fitting software to determine the respective compound concentration resulting in 50% growth inhibition (GI50) values. For each compound GI50 values were typically determined from at least 2 entirely independent experiments.
TMD8 cells were acquired through a license agreement with Tokyo Medical and Dental University, Japan. Cells are cultivated in MEM Alpha (BioConcept, #1-23F01-1, lot. LB04262P) supplemented with 10% FCS (HyClone, GE #SH30066.03, lot AB3217603), 2 mM L-Glutamine (BioConcept, #5-10K50-H, lot. LA03467P), 1% Pen/Strep (BioConcept, #4-01F00-H, lot. LB04235P).

OCI-LY3 cells = assay: Resazurin cell viability (proliferation) assay in OCI-LY3 DLBCL cells; conditions: OCI-LY3 cells (BTK independent), 72 h, 50% growth inhibition vs vehicle, read-out: OCI-LY3 Prol GI50
Procedure: as §1, §2, §3, §4, §5
OCI-LY3 cells were acquired through a license agreement with University Health Network, Toronto, Canada. Cells are cultivated in RPM11640 media (Gibco, #61870-010, lot. 1894759), supplemented with 10% FCS (HyClone, GE #SH30066.03, lot AB217603), 2 mM L-Glutamine (BioConcept, #5-10K50-H, lot. LA03467P), 1 mM Sodium Pyruvate (BioConcept, #5-60F00-H, lot. LB10510P), 10 mM HEPES (Gibco, #15630-056, lot. 1854074), 1% Pen/Strep (BioConcept, #4-01F00-H, lot. LB04235P).

BTK-GFP = target: T1, BTK-GFP (Homo sapiens, UniProt Q06187+Q96SW2); assay: BTK-GFP protein abundance flow cytometry assay in HEK293A cells; conditions: HEK293A BTK-GFP-iresRFP cells, 24 h; for DC50: GFP signal by flow cytometry, concentration at which 50% maximal degradation was observed; for BTK deg Amax: % protein remaining at the concentration at which maximum degradation is seen
T1 construct: expressed in transfected cells; host or cells: HEK293A (Invitrogen R70507), lentiviral transduction with pLenti6-BTK-GFP-Ires-RFP, blasticidin selection
Procedure: as §1
BTK-GFP and IKZF3-GFP protein abundance flow cytometry assay in HEK293A cells:
Degradation of BTK or IKZF3 was measured in HEK293A cells (Invitrogen R70507) expressing either BTK-GFP and RFP or IKZF3-GFP and RFP from a stably integrated bicistronic BTK-GFP-iresRFP or IKZF3-GFP-iresRFP construct, respectively. Reduction of the GFP signal measured by flow cytometry served as readout for BTK or IKZF3 degradation after degrader treatment.
i) Cloning of the pLenti6-BTK-GFP-1Res-RFP and IKZF3-GFP-Ires-RFP Sensor Vectors
The bicistronic BTK-GFP-iresRFP construct is based on a pLenti6-DEST vector backbone where GFP was introduced into the unique Xho1 site downstream of the destination cassette (DEST) and RFP was cloned behind an internal ribosomal entry site (Ires).
In detail, the sensor construct was engineered by replacing NanoLuciferase (NLuc) by GFP and FireFly luciferase (FF) by RFP from pLenti6-DEST-NLuc-Ires-FF.
The pLenti6-DEST-NLuc-Ires-FF sensor construct was cloned by replacing eGFP from pLenti6-DEST-ires-eGFP with a synthesized stuffer element (encoding Ires-FF with FF flanked by two Nhe1 restriction sites) using blunt end cloning replacing Ires-eGFP between the two PmII. To enable C-terminal tagging with NanoLuciferase (NLuc), NLuc was amplified from pNL1.1 (Promega #N1001) using linker primers with Xho1 sites for ligating into linearized pLenti6-DEST-Ires-FF using Xho1 digest resulting in the construct pLenti6-DEST-NLuc-Ires-FF.
The pLenti6-DEST-NLuc-Ires-FF served as base vector for cloning pLenti6-DEST-GFP-Ires-RFP using Gibson assembly to replace FF with RFP and NLuc with GFP. In a first round FF was replaced by RFP by amplifying RFP from a template using the following Gibson assembly linker primers (Gibson-Nhe1 RFPfw, […]gctagc[…] (SEQ ID NO: 1); Gibson-Nhe1 RFP-Stoprev, […]ctagc[…] (SEQ ID NO: 2)) to clone into pLenti6-DEST-NLuc-Ires-FF digested with Nhe1 and gel-purified to remove the FF fragment. The resulting pLenti6-DEST-NLuc-Ires-RFP vector served as the template to replace NLuc with GFP by amplifying GFP from a template using following Gibson assembly linker primers (Gibson-Xho1 GFPfw, […]c[…] (SEQ ID NO: 3); Gibson-Xho1 GFP-Stoprev, […] (SEQ ID NO: 4)) to clone into pLenti6-DEST-NLuc-Ires-RFP digested with Xho1 and gel-purified to remove the NLuc fragment. All Gibson assembly reactions were performed with Gibson assembly Master Mix (New England Biolabs NEB E261 IL) according to manufacturer's manual, resulting in the destination vector pLenti6-DEST-GFP-Ires-RFP to allow Gateway cloning. To enable gateway cloning and C-terminal GFP tagging of BTK, the BTK open reading frame (ORF) was first shuttled from a pcDNA-DEST40-BTK vector (Invitrogen library ID INV_20090504v1) into pDONR221 (Invitrogen 12536-017) vector using a gateway BP reaction according to the manufacturer's manual (Invitrogen 11789-013) resulting in the novel construct pENTR221-BTK. For C-terminal tagging the STOP codon was mutated to a leucine performing a mutagenesis reaction with the following primers (pENTR221-BTK Quikchange STOP-Leu fw, gtcatggatgaagaatccTTGaacccagctttcttgtac; pENTR221-BTK Quikchange STOP-Leu REVC, gtacaagaaagctgggttCAAggattcttcatccatgac) using the QuikChange Lightning mutagenesis kit (Agilent Technologies #210518) according to the manufacturer's manual, resulting in pENTR221-BTK (STOP-Leu). […]

T1 sequence (Q06187 whole entry): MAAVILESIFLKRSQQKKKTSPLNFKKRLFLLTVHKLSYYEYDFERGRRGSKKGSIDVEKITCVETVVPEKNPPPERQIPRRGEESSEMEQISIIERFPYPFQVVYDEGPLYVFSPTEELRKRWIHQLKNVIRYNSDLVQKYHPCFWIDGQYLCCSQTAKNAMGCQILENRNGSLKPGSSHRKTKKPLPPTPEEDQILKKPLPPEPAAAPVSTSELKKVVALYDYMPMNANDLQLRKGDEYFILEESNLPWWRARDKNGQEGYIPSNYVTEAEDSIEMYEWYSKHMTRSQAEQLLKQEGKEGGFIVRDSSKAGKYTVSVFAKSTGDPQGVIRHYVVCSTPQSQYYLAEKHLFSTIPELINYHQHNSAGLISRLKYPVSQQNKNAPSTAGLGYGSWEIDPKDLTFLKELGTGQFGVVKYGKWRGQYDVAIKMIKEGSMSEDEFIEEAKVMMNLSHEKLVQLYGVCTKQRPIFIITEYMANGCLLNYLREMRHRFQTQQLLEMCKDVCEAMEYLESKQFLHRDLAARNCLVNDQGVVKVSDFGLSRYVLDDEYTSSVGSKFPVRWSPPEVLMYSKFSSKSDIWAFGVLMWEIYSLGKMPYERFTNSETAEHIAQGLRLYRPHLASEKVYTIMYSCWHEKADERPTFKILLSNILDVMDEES
T1 sequence (Q96SW2 whole entry): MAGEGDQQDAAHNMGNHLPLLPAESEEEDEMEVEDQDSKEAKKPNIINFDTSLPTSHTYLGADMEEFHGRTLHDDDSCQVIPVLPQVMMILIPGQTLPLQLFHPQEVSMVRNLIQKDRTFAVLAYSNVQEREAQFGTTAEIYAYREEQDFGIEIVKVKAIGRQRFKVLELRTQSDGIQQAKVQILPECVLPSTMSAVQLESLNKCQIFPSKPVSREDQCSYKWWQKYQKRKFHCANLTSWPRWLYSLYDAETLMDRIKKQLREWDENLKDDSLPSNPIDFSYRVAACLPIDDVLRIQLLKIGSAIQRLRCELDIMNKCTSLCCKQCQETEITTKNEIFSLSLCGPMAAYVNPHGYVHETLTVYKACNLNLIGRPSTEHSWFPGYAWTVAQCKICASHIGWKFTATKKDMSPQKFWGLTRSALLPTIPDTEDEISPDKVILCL
T1 sequence (Q16531 whole entry partner): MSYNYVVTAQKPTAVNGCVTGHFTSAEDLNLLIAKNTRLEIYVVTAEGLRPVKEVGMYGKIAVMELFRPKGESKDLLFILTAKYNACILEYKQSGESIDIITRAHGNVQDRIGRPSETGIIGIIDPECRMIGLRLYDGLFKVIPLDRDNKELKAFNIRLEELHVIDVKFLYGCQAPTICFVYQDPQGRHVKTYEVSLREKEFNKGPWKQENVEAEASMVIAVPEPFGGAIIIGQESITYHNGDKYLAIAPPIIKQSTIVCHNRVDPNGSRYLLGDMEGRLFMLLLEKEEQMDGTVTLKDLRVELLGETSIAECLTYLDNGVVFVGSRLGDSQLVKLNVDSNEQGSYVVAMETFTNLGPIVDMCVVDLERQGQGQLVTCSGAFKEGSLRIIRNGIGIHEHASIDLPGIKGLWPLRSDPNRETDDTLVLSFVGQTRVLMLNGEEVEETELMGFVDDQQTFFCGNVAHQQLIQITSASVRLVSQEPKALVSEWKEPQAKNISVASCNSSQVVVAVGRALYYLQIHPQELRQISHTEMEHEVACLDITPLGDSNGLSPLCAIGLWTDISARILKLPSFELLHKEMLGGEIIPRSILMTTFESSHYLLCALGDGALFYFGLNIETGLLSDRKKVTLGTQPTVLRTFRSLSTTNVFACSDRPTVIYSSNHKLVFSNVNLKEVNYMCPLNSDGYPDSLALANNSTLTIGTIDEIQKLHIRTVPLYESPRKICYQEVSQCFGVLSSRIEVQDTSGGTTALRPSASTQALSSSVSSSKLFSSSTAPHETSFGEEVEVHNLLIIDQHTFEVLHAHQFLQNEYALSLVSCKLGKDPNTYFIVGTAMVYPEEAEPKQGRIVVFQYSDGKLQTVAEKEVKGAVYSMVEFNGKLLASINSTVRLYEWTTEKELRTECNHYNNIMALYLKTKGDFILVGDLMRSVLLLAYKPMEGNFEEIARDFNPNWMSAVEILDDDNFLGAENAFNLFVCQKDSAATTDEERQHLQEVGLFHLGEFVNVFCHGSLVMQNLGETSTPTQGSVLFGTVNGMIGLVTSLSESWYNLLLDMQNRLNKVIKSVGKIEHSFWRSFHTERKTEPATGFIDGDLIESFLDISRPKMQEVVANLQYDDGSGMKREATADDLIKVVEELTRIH

| Structure (SMILES) | GI50 (OCI-LY3 cells; Homo sapiens) [nM] | DC50 (BTK-GFP) [nM] | BTK deg Amax (BTK-GFP) [%] | GI50 (TMD8 cells; Homo sapiens) [nM] | GI50 (TMD8 cells) [nM] | GI50 (OCI-LY3 cells) [nM] |
| --- | --- | --- | --- | --- | --- | --- |
| Cc1cc(F)c(C(=O)N(C)CCCCCNCc2ccc(-c3cc4c(-c5cc(F)cc(NC(=O)c6ccc(C(C)(C)O)cc6F)c5C)ncnc4[nH]3)cc2)cc1N1CCC(=O)NC1=O [Compound 28, 5-(2,4-Dioxotetrahydropyrimidin-1(2H)-yl)-2-fluoro-N-(5-((4-(4-(5-fluoro-3-(2-fluoro-4-(2-hydroxypropan-2-yl)benzamido)-2-methylphenyl)-7H-pyrrolo[2,3-d]pyrimidin-6-yl)benzyl)amino)pentyl)-N,4-dimethylbenzamide] | 6120 | 93.7 | 12.1 | 7.16 | – | – |
| COc1ccc(C(=O)N2CCC(O[C@H]3CC[C@H](Oc4ccc(-c5cc6c(-c7cc(F)cc(NC(=O)c8ccc(C(C)(C)O)cc8F)c7C)ncnc6[nH]5)cc4)CC3)CC2)cc1N1CCC(=O)NC1=O [Compound 46, N-(3-(6-(4-(((1r,4r)-4-((1-(3-(2,4-dioxotetrahydropyrimidin-1(2H)-yl)-4-methoxybenzoyl)piperidin-4-yl)oxy)cyclohexyl)oxy)phenyl)-7H-pyrrolo[2,3-d]pyrimidin-4-yl)-5-fluoro-2-methylphenyl)-2-fluoro-4-(2-hydroxypropan-2-yl)benzamide] | – | 1.7 | 3.6 | – | 3.59 | > 10000 |
| COc1ccc(C(=O)N2CCC(CCN3CCN(Cc4ccc(-c5cc6c(-c7cc(F)cc(NC(=O)c8ccc(C(C)(C)O)cc8F)c7C)ncnc6[nH]5)cc4)CC3)CC2)cc1N1CCC(=O)NC1=O [Compound 17, N-(3-(6-(4-((4-(2-(1-(3-(2,4-Dioxotetrahydropyrimidin-1(2H)-yl)-4-methoxybenzoyl)piperidin-4-yl)ethyl)piperazin-1-yl)methyl)phenyl)-7H-pyrrolo[2,3-d]pyrimidin-4-yl)-5-fluoro-2-methylphenyl)-2-fluoro-4-(2-hydroxypropan-2-yl)benzamide] | 4140 | 2.3 | 11.0 | 0.5 | – | – |
| COc1ccc(C(=O)N2CCC(CN3CCN(Cc4ccc(-c5cc6c(-c7cc(F)cc(NC(=O)c8ccc(C(C)(C)O)cc8F)c7C)ncnc6[nH]5)cc4)CC3)CC2)cc1N1CCC(=O)NC1=O [Compound 7, N-(3-(6-(4-((4-((1-(3-(2,4-Dioxotetrahydropyrimidin-1(2H)-yl)-4-methoxybenzoyl)piperidin-4-yl)methyl)piperazin-1-yl)methyl)phenyl)-7H-pyrrolo[2,3-d]pyrimidin-4-yl)-5-fluoro-2-methylphenyl)-2-fluoro-4-(2-hydroxypropan-2-yl)benzamide] | 6120 | 0.7 | 3.3 | 0.39 | – | – |

Further lines, with some results ahead:

| GI50 (OCI-LY3 cells; Homo sapiens) [nM] | DC50 (BTK-GFP) [nM] | BTK deg Amax (BTK-GFP) [%] | Structure (SMILES) | GI50 (TMD8 cells; Homo sapiens) [nM] | GI50 (TMD8 cells) [nM] | GI50 (OCI-LY3 cells) [nM] |
| --- | --- | --- | --- | --- | --- | --- |
| 4370 | 0.8 | 3.9 | COc1ccc(C(=O)N2CCN(CCN3CCC(COc4ccc(-c5cc6c(-c7cc(F)cc(NC(=O)c8ccc(C(C)(C)O)cc8F)c7C)ncnc6[nH]5)cc4)CC3)CC2)cc1N1CCC(=O)NC1=O [Compound 51, N-(3-(6-(4-((1-(2-(4-(3-(2,4-dioxotetrahydropyrimidin-1(2H)-yl)-4-methoxybenzoyl)piperazin-1-yl)ethyl)piperidin-4-yl)methoxy)phenyl)-7H-pyrrolo[2,3-d]pyrimidin-4-yl)-5-fluoro-2-methylphenyl)-2-fluoro-4-(2-hydroxypropan-2-yl)benzamide] | 0.58 | – | – |
| 7770 | 1.2 | 4.1 | Cc1ccc(C(=O)N2CCC(OC3CCN(Cc4ccc(-c5cc6c(-c7cc(F)cc(NC(=O)c8ccc(C(C)(C)O)cc8F)c7C)ncnc6[nH]5)cc4)CC3)CC2)cc1N1CCC(=O)NC1=O [Compound 50, N-(3-(6-(4-((4-((1-(3-(2,4-dioxotetrahydropyrimidin-1(2H)-yl)-4-methylbenzoyl)piperidin-4-yl)oxy)piperidin-1-yl)methyl)phenyl)-7H-pyrrolo[2,3-d]pyrimidin-4-yl)-5-fluoro-2-methylphenyl)-2-fluoro-4-(2-hydroxypropan-2-yl)benzamide] | 0.66 | – | – |
